Measured values reported in ChEMBL document CHEMBL1201862, “PubChem BioAssay data set” (2004).
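Following 48 hours of exposure in 96-well plates, responses at five concentrations were used to interpolate endpoints linearly. Here, GI50 denotes the concentration required for 50% inhibition of growth.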 The source made the active and inactive calls. No stated cut-off is given here; in the data, active = GI50 up to about 1.1 µM and inactive = higher.

Assays:
Experiment in all cases: NCI-60 cell line screen, 48 h
786-0 = system: 786-0
A498 = system: A498
ACHN = system: ACHN
CCRF-CEM = system: CCRF-CEM
COLO 205 = system: COLO 205
DU-145 = system: DU-145
HCT-15 = system: HCT-15
HOP-92 = system: HOP-92
Hs-578T = system: Hs-578T
K562 = system: K562
MCF7 = system: MCF7
Malme-3M = system: Malme-3M
NCI-H23 = system: NCI-H23
NCI/ADR-RES = system: NCI/ADR-RES
OVCAR-5 = system: OVCAR-5
RXF 393 = system: RXF 393
SF-268 = system: SF-268
SNB-19 = system: SNB-19
SNB-75 = system: SNB-75

Row | SMILES | GI50 (786-0) | GI50 (A498) | GI50 (ACHN) | GI50 (CCRF-CEM) | GI50 (COLO 205) | GI50 (DU-145) | GI50 (HCT-15) | GI50 (HOP-92) | GI50 (Hs-578T) | GI50 (K562) | GI50 (MCF7) | GI50 (Malme-3M) | GI50 (NCI-H23) | GI50 (NCI/ADR-RES) | GI50 (OVCAR-5) | GI50 (RXF 393) | GI50 (SF-268) | GI50 (SNB-19) | GI50 (SNB-75)
1 | Cc1ccc(S(=O)(=O)NC(=O)Nc2nc[nH]n2)cc1 | > 100 µM (inactive) | > 100 µM (inactive) | > 100 µM (inactive) | > 100 µM (inactive) | > 100 µM (inactive) | > 100 µM (inactive) | > 100 µM | > 100 µM (inactive) | > 100 µM (inactive) | > 100 µM (inactive) | > 100 µM (inactive) | > 100 µM (inactive) | > 100 µM (inactive) | > 100 µM (inactive) | > 100 µM (inactive) | > 100 µM (inactive) | > 100 µM (inactive) | > 100 µM (inactive) | > 100 µM (inactive)
2 | Cc1ccc(NCCN(C)C)c2c(=O)c3cc(O)ccc3oc12 | 5.24 µM (inactive) | 14.9 µM (inactive) | 4.62 µM (inactive) | 2.28 µM (inactive) | 10.8 µM (inactive) | 15.1 µM (inactive) | 9.08 µM | 11.1 µM (inactive) | 6.41 µM (inactive) | 4.09 µM (inactive) | 5.38 µM (inactive) | 13.9 µM (inactive) | 12.6 µM (inactive) | 10.6 µM (inactive) | 15.5 µM (inactive) | 11.9 µM (inactive) | 5.35 µM (inactive) | 11.3 µM (inactive) | 4.79 µM (inactive)
3 | Oc1cc(CN2COc3ccccc32)c(O)cc1CNC1CCCCC1 | 18.5 µM (inactive) | 22 µM (inactive) | 29.2 µM (inactive) | 4.53 µM (inactive) | 17 µM (inactive) | 45.2 µM (inactive) | 20.1 µM | 28.2 µM (inactive) | 28.7 µM (inactive) | 21.9 µM (inactive) | 20.4 µM (inactive) | 18.9 µM (inactive) | 22.3 µM (inactive) | 37.2 µM (inactive) | > 100 µM (inactive) | 21.5 µM (inactive) | 16.2 µM (inactive) | > 100 µM (inactive) | 18.8 µM (inactive)
4 | Cc1ccc2cccc(-c3cccc4ccccc34)c2n1 | 27.4 µM (inactive) | 20.4 µM (inactive) | 24.4 µM (inactive) | 19.8 µM (inactive) | 23.7 µM (inactive) | 36.8 µM (inactive) | 21.7 µM | 12.6 µM (inactive) | 23.5 µM (inactive) | 4.66 µM (inactive) | > 10 µM (inactive) | 4.63 µM (inactive) | 32.9 µM (inactive) | 26.1 µM (inactive) | 18.3 µM (inactive) | 13.6 µM (inactive) | 25.5 µM (inactive) | 46.9 µM (inactive) | 8.87 µM (inactive)
5 | COc1cc(/C=N/c2ccccn2)cc(OC)c1OC | > 100 µM (inactive) | > 100 µM (inactive) | > 100 µM (inactive) | > 100 µM (inactive) | > 100 µM (inactive) | > 100 µM (inactive) | > 82.6 µM | > 100 µM (inactive) | > 100 µM (inactive) | > 100 µM (inactive) | 54.5 µM (inactive) | > 100 µM (inactive) | > 100 µM (inactive) | > 100 µM (inactive) | > 100 µM (inactive) | 58.7 µM (inactive) | > 100 µM (inactive) | 80.5 µM (inactive) | > 100 µM (inactive)
6 | O=[N+]([O-])c1ccc(C[S+]([O-])Cc2ccccc2)cc1 (centres undefined) | > 100 µM (inactive) | > 100 µM (inactive) | > 100 µM (inactive) | > 100 µM (inactive) | > 100 µM (inactive) | > 100 µM (inactive) | > 100 µM | > 100 µM (inactive) | > 100 µM (inactive) | > 100 µM (inactive) | > 100 µM (inactive) | > 100 µM (inactive) | > 100 µM (inactive) | > 100 µM (inactive) | > 100 µM (inactive) | > 100 µM (inactive) | > 100 µM (inactive) | > 100 µM (inactive) | 39.9 µM (inactive)
7 | C=C1C(C(O)C[C@H](C)C2O[C@@]3(CCCCO3)CCC2C)O[C@@H]2CCC3(CCC(/C=C/[C@@H](C)C4CC(C)=CC5(O4)O[C@H](C[C@](C)(O)C(=O)O)CCC5O)O3)OC2[C@@H]1O (some centres undefined) | 0.00912 µM (active) | 0.00564 µM (active) | 0.0191 µM (active) | 0.00826 µM (active) | 0.00376 µM (active) | 0.00908 µM (active) | < 0.0163 µM | 0.00375 µM (active) | 0.00318 µM (active) | 0.00429 µM (active) | 0.0065 µM (active) | 0.000764 µM (active) | 0.00819 µM (active) | 0.128 µM (active) | 0.00826 µM (active) | 0.018 µM (active) | 0.00335 µM (active) | 0.0027 µM (active) | 0.000608 µM (active)
8 | COc1ccc(-c2oc3cc(O)c(OC)c(O)c3c(=O)c2O)cc1 [BETULETOL] | 6.08 µM (inactive) | 7.11 µM (inactive) | 2.77 µM (inactive) | 5.16 µM (inactive) | 23.7 µM (inactive) | 2.36 µM (inactive) | 4.84 µM | 6.7 µM (inactive) | 15.2 µM (inactive) | 10.9 µM (inactive) | 4.44 µM (inactive) | 10.5 µM (inactive) | 5.62 µM (inactive) | 6.73 µM (inactive) | 26.9 µM (inactive) | 12 µM (inactive) | 8.61 µM (inactive) | 10.1 µM (inactive) | 10.4 µM (inactive)
9 | O=C1C(Cl)=C(N2CCN(CCOCCO)CC2)C(=O)c2ncccc21 | > 10 µM (inactive) | > 10 µM (inactive) | > 10 µM (inactive) | 0.001 µM (active) | > 10 µM (inactive) | > 10 µM (inactive) | > 10 µM | 1.63 µM (inactive) | > 10 µM (inactive) | > 10 µM (inactive) | > 10 µM (inactive) | 7.85 µM (inactive) | > 10 µM (inactive) | > 10 µM (inactive) | > 10 µM (inactive) | 3.69 µM (inactive) | > 10 µM (inactive) | > 10 µM (inactive) | > 10 µM (inactive)
10 | Cc1c(C)c2c(c(N)c1C#N)C(=O)N(O)C2=O | > 100 µM (inactive) | > 100 µM (inactive) | > 100 µM (inactive) | > 100 µM (inactive) | > 100 µM (inactive) | > 100 µM (inactive) | > 100 µM | > 100 µM (inactive) | > 100 µM (inactive) | > 100 µM (inactive) | > 100 µM (inactive) | > 100 µM (inactive) | > 100 µM (inactive) | > 100 µM (inactive) | > 100 µM (inactive) | > 100 µM (inactive) | > 100 µM (inactive) | > 100 µM (inactive) | 45.2 µM (inactive)
11 | OC1CC2CCC(C1)N2CCCN1c2ccccc2Sc2ccc(Cl)cc21 (centres undefined) | 1.83 µM (inactive) | 1.84 µM (inactive) | 2.23 µM (inactive) | 1.94 µM (inactive) | 1.77 µM (inactive) | 3.81 µM (inactive) | 2.49 µM | 2.5 µM (inactive) | 2.22 µM (inactive) | 2.04 µM (inactive) | 1.59 µM (inactive) | 1.87 µM (inactive) | 3.13 µM (inactive) | 2.36 µM (inactive) | 2.82 µM (inactive) | 1.74 µM (inactive) | 2.37 µM (inactive) | 3.88 µM (inactive) | 2.21 µM (inactive)
